Tests used:
[1] = system: PAH rats; experiment: Penile erectile function observation in PAH rats; assay type: in vivo, SD rats
Description: After gavage treatment, penile erection in the animals was observed, wherein the time of penile erection phenomenon after gavage was recorded in each group.

[2] = system: UIRI model mice; experiment: Unilateral renal ischemia-reperfusion mouse model (UIRI model) of renal fibrosis; assay type: in vivo, BALB/c mice; settings: 5 mg·kg^−1·d^−1 gavage, 10 days
Text: Fifteen male BALB/c mice were randomly divided into: a Sham group (a sham-operation group) including 5 mice, and a surgical modeling group including 10 mice. Surgical method: mice were anesthetized and incised on the left side of the abdomen to expose the kidney, and the renal pedicle was bluntly dissected. In the sham-operation group, the renal pedicle was only exposed without clamping; in the modeling group, the left kidney renal pedicle was clamped with a non-invasive miniature arterial clamp for 30 min, and the mice were placed on a thermostat plate at 37° C. to maintain a constant body temperature during the clamping period, and the surgical incision was covered with saline-impregnated gauze to prevent dehydration of the renal tissue. The arterial clamp was removed after 30 min, and it was observed that the kidney changed gradually from purple-black to bright red within 1 min, indicating successful blood reperfusion. The kidney was returned to its original position and the wound was sutured. The mice in the modeling group were randomly divided into 2 groups: a UIRI group (a model group) and a treatment group of the potassium salt crystal form B of WYQ (5 mg/kg), 5 mice in each group.
The first gavage administration was started 2 hours after the operation.
(2) treatment group of the potassium salt crystal form B of WYQ: the potassium salt crystal form B of WYQ was diluted into a 1 mg/ml solution with normal saline and administered by gavage at the dose of 5 mg·kg^−1·d^−1; and
administered once a day for consecutive 10 days.
On the 10th after operation, mice were anesthetized in the same way, the right dorsum was incised to expose the right kidney, and the renal pedicle was ligated before removing the right kidney. The mice in the sham-operation group were only stripped of the perirenal membrane without removing the right kidney. On the 11th after operation, all the mice were sacrificed, the abdominal cavity was opened, and the left kidney tissues of the mice were peeled off, caring to maintain the integrity of the kidney. After the kidney is taken out, the kidney is quickly transferred to pre-chilled PBS, and the kidney is cut for different tests. The kidney is divided into four parts with a scalpel, wherein the upper and lower ventral poles of the kidney were put into liquid nitrogen for extraction of protein and mRNA, and detection of changes in the expression amount of fibrosis-related factors proteins and genes. After 2 hours, the kidney tissue was transferred and stored in the refrigerator at −80° C. The dorsal side of the kidney was fixed in 4% paraformaldehyde for making paraffin sections. The morphological changes of the kidney tissue were observed by HE staining and Masson staining, and the changes of the expression of fibrosis marker proteins in the kidney tissues were observed by immunohistochemistry.

Question: With CCCCOC(=O)[N-]S(=O)(=O)c1cccc(-c2nc3c(CCC)nn(C)c3c(=O)[nH]2)c1.[K+] [potassium salt crystal form B] as the compound, how does the “rats showing penile erection” value ([1]; high-dose 20 mg·kg^−1d^−1, over 40 min after gavage) read?
Answer: The value was 80%.

Question: And the “rats showing penile erection” value ([1]; low-dose 5 mg·kg^−1d^−1, over 1 h after gavage)?
Answer: Its value is 50%.

Question: And the “rats showing penile erection” value ([1]; medium-dose 10 mg·kg^−1d^−1, over 1 h after gavage)?
Answer: The value was 80%.

Question: And the “rats showing penile erection” value ([1]; mini-dose 2 mg·kg^−1d^−1, over 1 h after gavage)?
Answer: The value was 30%.

Question: What about the “Collagen I protein expression in kidney tissue (Western Blot) vs UIRI model” value [2] of the same compound?
Answer: The value was “significantly reduced”.

Question: What about the “FN1 protein expression in kidney tissue (Western Blot) vs UIRI model” value [2] of the same compound?
Answer: Its value is “significantly reduced”.

Question: And the “FN1 protein expression level in renal fibrotic lesions (immunohistochemistry)” value [2]?
Answer: The value was “significantly reduced”.

Question: And the “PAI-1 protein expression in kidney tissue (Western Blot) vs UIRI model” value [2]?
Answer: Its value is “significantly reduced”.

Question: What about the “α-SMA protein expression in kidney tissue (Western Blot) vs UIRI model” value [2] of the same compound?
Answer: The value was “significantly reduced”.

Question: And the “α-SMA protein expression level in renal fibrotic lesions (immunohistochemistry)” value [2]?
Answer: The value was “significantly reduced”.

Question: What about the “extracellular matrix deposition in the kidneys” value ([2]; HE/Masson staining) of the same compound?
Answer: The value was “decreased”.

Question: And the “inflammatory cell infiltration in the kidneys” value ([2]; HE/Masson staining)?
Answer: The value was “significantly reduced”.

Source: US12441732B2, “Potassium salt crystal form B of phosphodiesterase type 5 inhibitor, and preparation method and use therefor” (Guangzhou Huazhen Pharmaceutical Co., Ltd, priority 2019, dated 2025)
